One assay has as its target T1, 5-HT3 binding sites (Mus musculus, UniProt P23979).
T1 construct: endogenous in cells; host or cells: N1E-115
Briefly: binding to 5-HT3 binding sites, N1E-115 cells (method of Hoyer and Neijt). An excerpt:
1. their potent and selective binding properties to 5-HT3 binding sites, e.g. to N1E-115 cells measured according to the method disclosed by D. Hoyer and H.C. Neijt, Mol. Pharm., 33, 303-309.

The next assay deals with gastric emptying in rats. Briefly: gastric emptying of glass spheres in rats. The class given is in vivo. The following applies: Rattus norvegicus, ip, given 15 min before 25 glass spheres, emptying measured 5, 10, 15 and 30 min after, read-out: ED50, promoting effect on gastric emptying. The protocol: 2. their promoting effect on gastric emptying in rats as indicated in standard in vivo tests when administered i.p. at doses of about 0.01 to about 1 mg/kg. The compounds to be tested are administered 15 min. before the administration of 25 glass spheres and gastric emptying is measured 5, 10, 15 and 30 min. after administration of the spheres. Example compound has an ED50 of 0.2 mg/kg i.p.

For another assay, the system named is Benzold Jarisch Reflex. The assay can be described thus: blockade of the Benzold Jarisch Reflex (method of Fozard). Particulars: read-out: ID50, blockade of the Benzold Jarisch Reflex. It counts as in vivo. The method, then:
Pharmacol., 326, 36-44 (1984). Example compound has an ID50 of 70 μg/kg.

Another assay relates to mice. The assay can be described thus: social stress model: plasma corticosterone rise induced by an aggressive, inaccessible male mouse. The class given is in vivo. Particulars: p.o., 0.1 to 1 mg/kg. The method, then: The compounds of the invention also reduce the plasma corticosterone rise induced in mice by the presence of an aggressive, but inaccessible male mouse. Compounds of the invention when given p.o. for 14 days at a dosage of from about 0.1 to 10 mg/kg restore the plasma corticosterone level to normal.
The Example compound is preferred.

In general, Kd refers to a measure of binding affinity in units of concentration. Low readings indicate a tighter complex, high ones a looser complex.

T1 sequence (P23979 24-489): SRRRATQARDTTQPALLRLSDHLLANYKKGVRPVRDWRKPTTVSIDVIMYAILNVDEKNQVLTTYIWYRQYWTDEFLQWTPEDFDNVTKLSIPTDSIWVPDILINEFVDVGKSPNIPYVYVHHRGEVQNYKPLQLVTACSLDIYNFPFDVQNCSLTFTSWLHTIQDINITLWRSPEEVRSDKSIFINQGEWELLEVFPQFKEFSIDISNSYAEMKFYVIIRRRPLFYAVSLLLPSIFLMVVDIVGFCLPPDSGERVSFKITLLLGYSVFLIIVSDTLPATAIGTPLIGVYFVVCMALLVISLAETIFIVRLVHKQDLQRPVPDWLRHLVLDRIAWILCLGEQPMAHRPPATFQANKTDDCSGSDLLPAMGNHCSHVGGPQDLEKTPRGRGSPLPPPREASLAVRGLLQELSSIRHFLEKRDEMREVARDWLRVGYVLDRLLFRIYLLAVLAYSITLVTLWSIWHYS

`COc1cccc2c(C(=O)O[C@H]3C[C@H]4CC[C@@H](C3)N4C)c[nH]c12` [Example compound, 7-Methoxy-1H-indol-3-carboxylic acid-(1αH, 5αH)-8-methyl-8-aza-bicyclo3,2,1oct-3α-yl-ester] gave a dissociation constant (Kd) on 5-HT3 binding sites of 1.35 nM. Also, the ED50 was determined as 0.2 mg/kg in the assay with gastric emptying in rats and 0.07 mg/kg in the assay on Benzold Jarisch Reflex. Moreover, the “stress-induced corticosterone concentration in plasma” value with mice is recorded as “reduces the stress-induced corticosterone concentration in plasma”.

The record behind these values is patent US5543426A, “Use of certain 3,7-disubstituted indole compounds for treating depression or cognitive disorders” (priority 1990, dated 1996).
